Source: patent publication US20180136197A1, “CELL-FREE METHODS OF DETECTING BIOACTIVE LIGANDS” (Brigham Young University, priority 2016, published 2018)

B1: RNase inhibitor: murine RNAse inhibitor purchased from New England Biolabs, added to CFPS reactions (protein, UniProt Q91VI7 1-456, looked up)
Ribonuclease inhibitor: MSLDIQCEQLSDARWTELLPLIQQYEVVRLDDCGLTEVRCKDISSAVQANPALTELSLRTNELGDGGVGLVLQGLQNPTCKIQKLSLQNCGLTEAGCGILPGMLRSLSTLRELHLNDNPMGDAGLKLLCEGLQDPQCRLEKLQLEYCNLTATSCEPLASVLRVKADFKELVLSNNDLHEPGVRILCQGLKDSACQLESLKLENCGITAANCKDLCDVVASKASLQELDLSSNKLGNAGIAALCPGLLLPSCKLRTLWLWECDITAEGCKDLCRVLRAKQSLKELSLASNELKDEGARLLCESLLEPGCQLESLWIKTCSLTAASCPYFCSVLTKSRSLLELQMSSNPLGDEGVQELCKALSQPDTVLRELWLGDCDVTNSGCSSLANVLLANRSLRELDLSNNCMGGPGVLQLLESLKQPSCTLQQLVLYDIYWTNEVEEQLRALEEERPSLRIIS

Test system: E. coli-based CFPS of GFP
Test: Cell-free protein synthesis (CFPS) of model protein GFP in presence of additives
Assay type: biochemical
Description: CFPS reactions took place in a 96-well plate at 37° C. for 2 hours. PANOxSP was used as an energy source (25% reaction volume of the cell extract, 1.2 nM plasmid, 12 to 15 mM magnesium glutamate, 1 mM 1,4-diaminobutane, 1.5 mM Spermidine, 33.3 mM phosphoenolpyruvate, 10 mM ammonium glutamate, 175 mM potassium glutamate, 2.7 mM potassium oxalate, 0.33 mM nicotinamide adenine dinucleotide, 0.27 mM coenzyme A, 1.2 mM ATP, 0.86 mM CTP, 0.86 mM GTP, 0.86 mM UTP, 0.17 mM folinic acid, 2 mM of all canonical amino acids with the exception of glutamic acid^81. Expressed protein was quantified by addition of 5 μM radiolabeled (U-14C) leucine (PerkinElmer, Waltham, Mass.) to the CFPS reaction. Varying concentrations (0 to 200 μM) of ligands were added to the CFPS reaction. In case of human sample testing, 20% and 10% of whole blood and urine (v/v), respectively were added to the CFPS in addition to the EDC ligands.
Initially, we hypothesized that urea is the main component to hinder protein synthesis in urine samples. The urea concentration in human samples is in a range of 0.1 to 0.8 M^88-89 with the average being 0.22 M^90. To understand the effect of urea on CFPS, we synthesized the model protein GFP in the presence of urea at concentrations between 0.001 to 1 M (FIG. 23). […] Error bars represent one standard deviation for n=3. […] Even reactions with 0.5 M urea retained 40% protein synthesis capability.
We next hypothesized that RNase activity hinders protein synthesis in both urine and blood samples^91,92,93. To test this hypothesis, we performed CFPS of GFP in the presence of urine and blood, and added murine RNase inhibitor as shown in FIGS. 24A and 24B. FIGS. 24A and 24B show the effect of RNase inhibitor on CFPS of GFP in the presence of urine (top) and blood (bottom). The lighter bars in both graphs represent the improvements in protein production in the presence of urine or blood with the addition of RNase inhibitor. The error bars represent one standard deviation for n=3. […] For instance, for 20% by volume urine sample, the GFP production yield increased from less than 10% to more than 30%. The improvement was more significant for blood samples, as 10% by volume blood eliminated protein synthesis, but even 45% by volume blood in CFPS containing RNase inhibitor retained 50% protein synthesis yield. […] Adding RNase inhibitors to CFPS reactions facilitates synthesis of sufficient biosensor protein to detect ligands in up to 25% and 45% by volume urine and blood, respectively. These higher volume percentages help to detect lower concentrations of ligands in the samples.

| Molecule | effect on CFPS performance (0.1 M urea) | retained protein synthesis capability (0.5 M urea) | GFP production yield (20% by volume urine, with RNase inhibitor (less than 10% without)) | retained protein synthesis yield (45% by volume blood, with RNase inhibitor) |
| --- | --- | --- | --- | --- |
| NC(N)=O [urea] | doesn't have a significant effect | 40% |  |  |
| B1 |  |  | more than 30% | 50% |
